According to US20240308978A1, “COMPOUNDS AND COMPOSITIONS FOR TREATING CONDITIONS ASSOCIATED WITH STING ACTIVITY” (IFM Due, Inc., priority 2021, published 2024):

Target: T1, hSTING (Homo sapiens, UniProt Q86WV6, G230A/H232R/R293Q/R71H)
T1 construct: host or cells: THP1-Dual KO-IFNAR2 cells
Test: STING reporter assay (luciferase) in THP1-Dual KO-IFNAR2 cells stimulated with 2′3′cGAMP
Format: cell-based
Details: 15 μM 2′3′cGAMP transfected, 24 h
Procedure: STING pathway activation by the compounds described herein was measured using THP1-Dual™ cells (KO-IFNAR2).
THP1-Dual™ KO-IFNAR2 Cells (obtained from invivogen) were maintained in RPMI, 10% FCS, 5 ml P/S, 2 mM L-glut, 10 mM Hepes, and 1 mM sodium pyruvate. Compounds were spotted in empty 384 well tissue culture plates (Greiner 781182) by Echo for a final concentration of 0.0017-100 μM. Cells were plated into the TC plates at 40 μL per well, 2×10E6 cells/mL. For activation with STING ligand, 2′3′cGAMP (MW 718.38, obtained from Invivogen), was prepared in Optimem media.
The following solutions were prepared for each 1×384 plate: • Solution A: 2 mL Optimem with one of the following stimuli: • 60 μL of 10 mM 2′3′cGAMP→150 μM stock • Solution B: 2 mL Optimem with 60 μL Lipofectamine 2000→Incubate 5 min at RT
2 mL of solution A and 2 ml Solution B was mixed and incubated for 20 min at room temperature (RT). 20 μL of transfection solution (A+B) was added on top of the plated cells, with a final 2′3′cGAMP concentration of 15 μM. The plates were then centrifuged immediately at 340 g for 1 minute, after which they were incubated at 37° C., 5% CO2,>98% humidity for 24 h. Luciferase reporter activity was then measured. EC50 values were calculated by using standard methods known in the art.
Luciferase reporter assay: 10 μL of supernatant from the assay was transferred to white 384-plate with flat bottom and squared wells. One pouch of QUANTI-Luc™ Plus was dissolved in 25 mL of water. 100 μL of QLC Stabilizer per 25 mL of QUANTI-Luc™ Plus solution was added. 50 μL of QUANTI-Luc™ Plus/QLC solution per well was then added. Luminescence was measured on a Platereader (e.g., Spectramax I3X (Molecular Devices GF3637001)).
Luciferase reporter activity was then measured. EC50 values were calculated by using standard methods known in the art.

[1] = numeric bound given instead of a class symbol

T1 sequence (Q86WV6 whole entry R71H/G230A/H232R/R293Q): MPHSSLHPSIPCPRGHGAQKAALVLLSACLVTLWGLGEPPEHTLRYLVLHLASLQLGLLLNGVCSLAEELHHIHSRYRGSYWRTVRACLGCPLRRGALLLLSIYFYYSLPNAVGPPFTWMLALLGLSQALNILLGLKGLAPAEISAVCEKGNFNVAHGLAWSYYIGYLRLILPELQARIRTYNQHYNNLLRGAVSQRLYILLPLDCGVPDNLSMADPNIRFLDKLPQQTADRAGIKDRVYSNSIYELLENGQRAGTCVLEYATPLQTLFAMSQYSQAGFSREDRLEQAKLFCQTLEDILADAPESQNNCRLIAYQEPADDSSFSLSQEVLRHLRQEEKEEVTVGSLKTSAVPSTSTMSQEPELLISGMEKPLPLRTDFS

Row | Compound | EC50 [1] [nM] | EC50 (class symbols) [nM]
1 | O=C(Nc1c[nH]c2ncc(F)cc12)N[C@H]1CC[C@H](Oc2ccc(C(F)(F)F)cn2)CC1 [Compound 116, 1-(5-fluoro-1H-pyrrolo[2,3-b]pyridin-3-yl)-3-((1r,4r)-4-((5-(trifluoromethyl)pyridin-2-yl)oxy)cyclohexyl)urea] | > 30000 | –
2 | O=C(Nc1c[nH]c2ccc(Cl)cc12)N[C@H]1CC[C@H](Oc2ccc(C(F)(F)F)cn2)CC1 [Compound 112, 1-(5-chloro-1H-indol-3-yl)-3-((1r,4r)-4-((5-(trifluoromethyl)pyridin-2-yl)oxy)cyclohexyl)urea] | – | 200 to 1000
3 | O=C(Nc1c[nH]c2ccc(F)cc12)N[C@H]1CC[C@H](Oc2ccc(C(F)(F)F)cn2)CC1 [Compound 108, 1-(5-fluoro-1H-indol-3-yl)-3-((1r,4r)-4-((5-(trifluoromethyl)pyridin-2-yl)oxy)cyclohexyl)urea] | – | 200 to 1000
4 | O=C(Nc1c[nH]c2cc(F)c(F)cc12)NC1CC(OC2CCN(CC(F)(F)F)CC2)C1 (stereo not drawn) [Compound 104, 1-(5,6-difluoro-1H-indol-3-yl)-3-(3-((1-(2,2,2-trifluoroethyl)piperidin-4-yl)oxy)cyclobutyl)urea] | – | 1000 to 5000
5 | O=C(Nc1c[nH]c2ccc(Cl)cc12)N[C@H]1C[C@H](Oc2ccc(C(F)(F)F)cn2)C1 [Compound 110, 1-(5-chloro-1H-indol-3-yl)-3-((1r,3r)-3-((5-(trifluoromethyl)pyridin-2-yl)oxy)cyclobutyl)urea] | – | 200 to 1000
6 | O=C(Nc1c[nH]c2ccc(Cl)cc12)N[C@H]1CC[C@@H](N2CCC(F)(F)CC2)CC1 [Compound 102, 1-(5-chloro-1H-indol-3-yl)-3-((1s,4s)-4-(4,4-difluoropiperidin-1-yl)cyclohexyl)urea] | – | 5000 to 100000
7 | O=C(Nc1c[nH]c2cc(F)c(F)cc12)N[C@H]1CC[C@H](OC2CC(F)(F)C2)CC1 [Compound 101, 1-(5,6-difluoro-1H-indol-3-yl)-3-((1r,4r)-4-(3,3-difluorocyclobutoxy)cyclohexyl)urea] | – | 1000 to 5000
8 | O=C(Nc1c[nH]c2ncc(F)cc12)N[C@H]1CC[C@@H](Oc2ccc(C(F)(F)F)cn2)CC1 [Compound 115, 1-(5-fluoro-1H-pyrrolo[2,3-b]pyridin-3-yl)-3-((1s,4s)-4-((5-(trifluoromethyl)pyridin-2-yl)oxy)cyclohexyl)urea] | – | 1000 to 5000
9 | O=C(Nc1c[nH]c2ccc(Cl)cc12)NC1CCN(c2ccc(C(F)(F)F)cn2)CC1 [Compound 105, 1-(5-chloro-1H-indol-3-yl)-3-(1-(5-(trifluoromethyl)pyridin-2-yl)piperidin-4-yl)urea] | – | 200 to 1000
10 | O=C(Nc1c[nH]c2ccc(Cl)cc12)N[C@H]1C[C@@H](Oc2ccc(C(F)(F)F)cn2)C1 [Compound 111, 1-(5-chloro-1H-indol-3-yl)-3-((1s,3s)-3-((5-(trifluoromethyl)pyridin-2-yl)oxy)cyclobutyl)urea] | – | 200 to 1000
11 | COCCN1CCC(O[C@H]2CC[C@H](NC(=O)Nc3c[nH]c4ccc(Cl)cc34)CC2)CC1 [Compound 106, 1-(5-chloro-1H-indol-3-yl)-3-((1r,4r)-4-((1-(2-methoxyethyl)piperidin-4-yl)oxy)cyclohexyl)urea] | > 30000 | –
12 | O=C(Nc1c[nH]c2ccc(F)cc12)N[C@H]1CC[C@@H](Oc2ccc(C(F)(F)F)cn2)CC1 [Compound 109, 1-(5-fluoro-1H-indol-3-yl)-3-((1s,4s)-4-((5-(trifluoromethyl)pyridin-2-yl)oxy)cyclohexyl)urea] | – | 200 to 1000
13 | O=C(Nc1c[nH]c2ccc(Cl)cc12)N[C@H]1CC[C@@H](Oc2ccc(C(F)(F)F)cn2)CC1 [Compound 113, 1-(5-chloro-1H-indol-3-yl)-3-((1s,4s)-4-((5-(trifluoromethyl)pyridin-2-yl)oxy)cyclohexyl)urea] | – | 200 to 1000
14 | O=C(Nc1c[nH]c2ccc(Cl)cc12)NC1CCN(Cc2ccc(C(F)(F)F)cn2)CC1 [Compound 107, 1-(5-chloro-1H-indol-3-yl)-3-(1-((5-(trifluoromethyl)pyridin-2-yl)methyl)piperidin-4-yl)urea] | – | 1000 to 5000
15 | O=C(Nc1c[nH]c2ccc(Cl)cc12)N[C@H]1CC[C@H](N2CCC(F)(F)CC2)CC1 [Compound 103, 1-(5-chloro-1H-indol-3-yl)-3-((1r,4r)-4-(4,4-difluoropiperidin-1-yl)cyclohexyl)urea] | – | 5000 to 100000
